Laboratory results reported in patent US6680292B1 (The Salk Institute for Biological Studies, priority 1998, dated 2004).
“Also recorded” adds a separate entry of the source.

B1: NGF: nerve growth factor; mouse 2.5S NGF at 500 pg/ml (protein, UniProt P01139 122-241, looked up)
Beta-nerve growth factor: SSTHPVFHMGEFSVCDSVSVWVGDKTTATDIKGKEVTVLAEVNINNSVFRQYFFETKCRASNPVESGCRGIDSKHWNSYCTTTHTFVKALTTDEKQAAWRFIRIDTACVCVLSRKATRRG
modifications: Beta-nerve growth factor
notes: nerve growth factor; mouse 2.5S NGF at 500 pg/ml

Key:
[1] = tested on: PC12 cells; assay: Survival and proliferation of PC12 cells (cell counts); format: cell-based, rat
Experimental: PC12 cells were maintained in RPMI-1640 medium supplemented with 5% fetal calf serum (FCS), 5% heat-inactivated horse serum (HS), 100 units/ml penicillin G sodium, 100 μg/ml streptomycin sulfate and 0.245 μg/ml amphotericin B. NGF-treated cells were grown in the presence of 500 pg/ml mouse 2.5S NGF. The 1-(β-D-ribofuranosyl)-1H-1,2,4-triazole-3-carboxamide was supplied by ICN Pharmaceuticals. HCN cells were maintained in serum-free N2 basal media with 500 pg/ml of FGF-2. Cells were plated on plastic tissue culture plates coated with polyornithine.
PC12 cells were grown as described above and plated at a density of 10,000 cells/well in RPMI with 500 pg/ml NGF. […] Cells were counted and neurite elongation evaluated on days 0, 1 and 3. The media was not changed for the duration of the experiment.

[2] = tested on: PC12 cells; assay: Neurite outgrowth / elongation in PC12 cells; format: cell-based, rat
Experimental: Neurite outgrowth was determined by measuring neurites from the cell body to the longest point and by counting the number of neurites per cell according to the method of Gysbers et al. (Gysbers et al., NeuroReport 3:997-1000 (1992) and Gysbers et al., Int. J. Dev. Neurosci. 14:19-34 (1996)). Cells are stained with antibodies for Rip, Glial Fibrillary Acidic Protein (GFAP), Microtubule Associated Protein 2ab (MAP2ab), and Calbindin (a Ca-buffering protein).
Briefly, cells were plated on poly-DL-ornithine-coated wells in 24-well plates at a concentration of 2.5×10^4 cells per well in RPMI-1640 medium containing 1.5% FCS, and 1.5% HS. Test compounds and NGF were added immediately after plating. […] The number of cells bearing neurites greater than one cell body diameter after each treatment with test compound was divided by the total number of cells counted.
The ratio of the number of cells bearing neurites in each treatment were divided by the total number of cells counted per treatment to determine the proportion of neurite bearing cells for each sample. The mean values (±S.E.M.) were then calculated for each treatment. […] The effect of the test compounds plus NGF is expressed as a percentage of the values obtained using 500 pg/ml NGF (which is given an arbitrary * value of 100% since neurite outgrowth proportions varied between experiments, usually from 20 to 35% for NGF-alone treatments). […]

[3] = tested on: HCN cells; assay: FGF-2 induced neurite elongation in HCN cells; format: cell-based; conditions: HCN cells with FGF-2; 0.1, 0.5, 1, 100, 400 nM Ribavirin
[4] = tested on: Fibroblasts; assay: Effect on non-neuronal cells: fibroblasts; format: cell-based; conditions: same experimental condition as PC12 and HCN cells
[5] = tested on: astrocytes; assay: Effect on non-neuronal cells: astrocytes; format: cell-based; conditions: same experimental condition as PC12 and HCN cells
[6] = tested on: PC12 cells; assay: Growth cone turning in PC12 cells; format: cell-based, rat; conditions: for growth cone turning: PC12 cells exposed to a focal site of compound, FIGS. 8A-8E
Experimental: The ability of compounds to stimulate neurite elongation as determined by growth cone turning was evaluated in vitro. PC 12 cells were cultured as described above (see Example 1). Cells growing in culture were exposed to a focal site of Ribavirin and control compounds and the number of growth cones with a turning angle was measured and the turned angle of each growth cone was measured.

[7] = tested on: HCN cells

Molecule | effect on cell survival or proliferation ([1]; PC12 cells, absence of NGF, various concentrations, FIG. 1) | effects of NGF on the survival and proliferation of PC12 cells ([1]; with 500 pg/ml NGF, assessed at day 1 and day 3, FIG. 2) | neurite elongation and networking ([2]; PC12 cells with NGF, 100 pM, 500 pM, 1 nM, 100 nM and 400 nM) | elongation and networking of the neurites [3] | effect on fibroblasts [4] | effect on astrocytes [5] | effective concentrations for growth cone turning ([6]; PC12 cells) | growth cone turning [6] | concentrations at which effects were more pronounced ([7]; HCN cells with FGF-2) | effect on FGF-2 actions (proliferation, survival) ([7]; HCN cells with FGF-2, up to 7 days, FIGS. 4 and 5) | effect on cell survival or proliferation ([7]; HCN cells, Ribavirin alone (no FGF-2), 12,500 or 25,000 cells/well, FIG. 3) | neurite outgrowth proportions (proportion of neurite bearing cells) ([2]; NGF-alone treatments, 500 pg/ml NGF, varied between experiments) [%]
NC(=O)c1ncn([C@@H]2O[C@H](CO)[C@@H](O)[C@H]2O)n1 [Ribavirin, 1-(β-D-ribofuranosyl)-1H-1,2,4-triazole-3-carboxamide] | No statistically significant effect | augmented/enhanced | enhanced at all concentrations tested | increased elongation and networking | without effect | without effect | nanomolar range | stimulated growth cone turning; also recorded: increased turning towards the Ribavirin site (attraction) | less than 1 nM | augmented/enhanced FGF-2 actions | no effect | 
Nc1nc2c(nc(Br)n2[C@@H]2O[C@@H]3COP(=O)(O)O[C@H]3[C@H]2O)c(=O)[nH]1 [8-bromo-cGMP] |  |  |  |  |  |  |  | turning away from the site (i.e., repulsion |  |  |  | 
B1 |  |  |  |  |  |  |  |  |  |  |  | 20 to 35
